# According to patent publication US20180353460A1, “METHODS OF TREATING UROLOGICAL DISORDERS USING SARMs” (priority 2014, published 2018):
# Where “and” joins values, the source holds several entries; their conditions need not be identical. Identical values can stand only once.
# Assays:
# Type in all cases: in vivo, human
# [1] = test system: postmenopausal women with SUI and UUI; test: Proof of concept clinical study: urge incontinence leaks per day
# Text: Unexpectedly, Compound IX reduced the median and mean number of urge leaks by ˜60-70% at the week 12 endpoint (Table 12). FIG. 14 provides mean urge leaks/day data over the course of the study in these 11 patients. At baseline the mean was 1.41 urge leaks per day which was reduced to 0.45 urge leaks per day at weak 12, representing a 68% decrease from baseline. Further, the effect on urge incontinence is durable for at least 7 months (N=7) with 0.62 urge leaks per day at 40 weeks (7 months after the last dose of Compound IX). It was unexpected to see any effect of Compound IX on urge incontinence much less such a dramatic and durable effect.
# To summarize: while all of the women in the trial had predominant SUI, some also experienced urge urinary incontinence (UUI).
# [2] = test system: levator ani muscle, urethra and endometrium; test: Proof of concept clinical study: quantitative pelvic MRI
# Text: (§1) Secondary Objectives: • To describe the effect of 12 weeks of treatment of Compound IX on the number of voids/day as assessed by the 3 days voiding diary. […] See Tables 2 (individual subject data) and Tables 4-6 (mean pad weight data for sites 1, 2, and 3, respectively), and FIG. 17 for mean and median reductions in pad weights from baseline to week 12 (across all sites). • To describe the effect of 12 weeks of treatment of Compound IX on SUI as assessed by the Urethral Pressure Profile (UPP). The UPP assessment was removed from the protocol because it is invasive and not standard of care. […] See summary data for all subjects across the 3 sites reported in Table 7 and FIGS. 13A and 13B. • Described is the effect of 12 weeks of treatment of Compound IX on subject reported impression of stress urinary incontinence severity as assessed by the Patient Global Impression of Severity Scale (PGI-S). See summary data for all subjects across the 3 sites reported in FIG. 12A. • Described is the effect of 12 weeks of treatment of Compound IX on subject reported impression of improvement as assessed by the Patient Global Impression of Improvement Scale (PGI-I). See summary data for all subjects across the 3 sites reported in FIG. 12B. • Described is the effect of 12 weeks of treatment of Compound IX on subject reported urogenital distress as assessed by the Urinary Distress Inventory Questionnaire (UDI-6). See summary data for all subjects across of 3 sites reported in Table 7 and FIG. 12C. • Described is the effect of 12 weeks of treatment of Compound IX on subject reported impact of urinary incontinence on daily life as assessed by the Incontinence Impact Questionnaire (IIQ-7). See summary data for all subjects across the 3 sites reported in Table 7 and FIG. 12D. • Described is the effect of 12 weeks of treatment of Compound IX on subject reported sexual function as indicated on the completion of the Female Sexual Function Index Questionnaire (FSFI). See summary data for all subjects across the 3 sites reported in Table 7 and FIG. 15. • Described is the effect of 12 weeks of treatment of Compound IX on pelvic floor muscles as measured by MRI. See FIG. 11 wherein the pelvic MRI for one representative subject on trial is reported at baseline and at 12 weeks, FIG. 16 wherein the pelvic MRI's for three representative subjects on trial are reported at baseline and at 12 weeks, and Example 19 and Table 13 which provide individual measurements of levator ani thickness, inner and outer diameter of the urethra, and endometrial thickness, and mean changes in the same from baseline to week 12.
# Quantitative MRI was used to visualize the pelvic floor of all post-menopausal subjects with SUI.
# In a continuation of the same study from Example 3, quantitative MRI was used to visualize the pelvic floor of 17 post-menopausal subjects with SUI. MRI was used to visualize and measure the mean thickness of the levator ani muscle, inner and outer diameter of the urethra, and the endometrial thickness of patients on trial at baseline and at the MRI visits approximately 12 weeks after baseline (exact times between baseline and second MRI are given). All data analysis used a significance value of 0.05 with one-tailed paired t-test. The mean change in each measurement and the statistical significance calculation for each value are given below: […]
# [3] = test system: postmenopausal women with SUI; test: Proof of concept clinical study: 24 hour pad weight test; conditions: for Mean Pad Weights % Reduction: week 12
# Text: as §1
# Reported herein are data for the first 18 patients at 12 weeks for the secondary endpoints of 24 hour pad weight test (Tables 2 and 4-6, and FIG. 17) and change in levator ani muscle, urethra, and endometrium for a selected subjects from Baseline to Week 12 as measured by quantitative MRI (FIGS. 11 and 16, Table 13 and Example 19). Data collection/analysis for these and additional secondary endpoints such as frequency of daily voids, urine volume per void, and bladder stress test is still ongoing.
# Overall, the median pad weight decreased by 78%, from 31.07 grams at baseline to 6.97 grams at week 12; whereas mean pad weights decreased by 71% from 74.26 grams at baseline to 21.4 grams at week 12.
# [4] = 17 subjects, baseline to about week 12
# [5] = individual patients, about 12 weeks
structure (smiles),measurement,setting,value
"C[C@](O)(COc1ccc(C#N)cc1)C(=O)Nc1ccc(C#N)c(C(F)(F)F)c1 [Compound IX, (S)—N-(4-Cyano-3-(trifluoromethyl)phenyl)-3-(4-cyanophenoxy)-2-hydroxy-2-methylpropanamide]","Median urge incontinence leaks per day, Week 12","[1]; 11 patients with >0 baseline leaks, baseline 1.3",0.3
same,"Mean urge incontinence leaks per day, Week 12","[1]; 11 patients with >0 baseline leaks, baseline 1.41",0.45 leaks/day
same,mean urge leaks per day at 40 weeks,"[1]; N=7, 7 months after the last dose",0.62 urge leaks per day
same,"Number of Urge Incontinence Leaks per Day, Week 12","[1]; individual patients, 3 mg/day p.o.",0 (10×) and 0.33 and 1 (2×) and 0.3 and 2.7 and 1.67 and 0.67
same,women with a reduction in UUI episodes per day of at least 50 percent,[1]; week 12,8 of 11
same,women with a reduction in their number of UUI leaks compared to baseline,[1]; week 12,9 of 11 and 11 of 11
same,reduction of median and mean number of urge leaks,"[1]; week 12 endpoint, 11 patients",60-70%
same,mean change in levator ani muscle thickness,"[2]; 17 subjects, baseline 4.79 mm to week 12, p=0.006",1.15 mm
same,mean change in urethra inner diameter,[2]; [4],0.07 cm
same,mean change in urethra outer diameter,[2]; [4],0.07 cm
same,"Endometrial stripe, follow up MRI",[2]; [5],2 mm (9×) and 3 mm (2×) and 5 mm and 4 mm (2×)
same,"Mean levator ani (LA) thickness at the level of the proximal urethra, follow up MRI",[2]; [5],4 mm (3×) and 5 mm (3×) and 6 mm (4×) and 1 mm and 6.5 mm and 8 mm and 10.5 mm and 7 mm (2×) and 10 mm
same,"Urethra inner diameter, follow up MRI",[2]; [5],1.4 cm (2×) and 1.1 cm (3×) and 1.2 cm (2×) and 1 cm (4×) and 0.9 cm (2×) and 1.3 cm (4×)
same,"Urethra outer diameter, follow up MRI",[2]; [5],1.7 cm (2×) and 1.6 cm (5×) and 1.8 cm (3×) and 1.4 cm (2×) and 1.2 cm and 2 cm and 1.9 cm and 1.3 cm (2×)
same,mean increase in inner urethral muscle diameter,"[2]; week 12, baseline 10.7 mm, p=0.002",0.7 mm
same,mean increase in outer urethral muscle diameter,"[2]; week 12, baseline 15.4 mm, p=0.0003",0.7 mm
same,Mean Pad Weights % Reduction,[3]; Site 1 (n = 10),77%
same,Mean Pad Weights % Reduction,[3]; Site 2 (n = 5),66%
same,Mean Pad Weights % Reduction,[3]; Site 3 (n = 2),74%
same,decrease of mean pad weight at week 12,[3]; all sites,71% and 78%
same,decrease of median pad weight at week 12,[3]; all sites,78% and 71%
same,median pad weight at week 12,[3]; baseline 31.07 grams,6.97 grams
same,mean pad weight at week 12,[3]; baseline 74.26 grams,21.4 grams
same,Pad Weights at Week 12,"[3]; individual patients, 3 mg/day p.o., 24 hour pad weight",7.31 grams and 7.74 grams and 4.54 grams and 26.93 grams and 3.58 grams and −2.3 grams and 204.4 grams and 14.3 grams and 10.1 grams and 29 grams and 6.9 grams and 5.63 grams and 3.9 grams and 6.13 grams and 7.04 grams and 37.27 grams and 6.48 grams and 6.71 grams
same,% Reduction in pad weight (Week 12),"[3]; individual patients, week 12 vs baseline",88% and 55% and 52% and 45% and 98% (2×) and “126%” and 51% and 82% and 75% and 81% and 91% (2×) and 59% and 80% and 27%
